This note sets out measurements from EP0463456A1, “Phosphorus-containing HMG-CoA reductase inhibitors, new intermediates and their use” (E.R. SQUIBB & SONS, INC., priority 1990, dated 1992).

This assay addresses T1, freshly isolated rat hepatocyte suspensions (Rattus norvegicus, UniProt P51639).
T1 sequence (P51639 1-887): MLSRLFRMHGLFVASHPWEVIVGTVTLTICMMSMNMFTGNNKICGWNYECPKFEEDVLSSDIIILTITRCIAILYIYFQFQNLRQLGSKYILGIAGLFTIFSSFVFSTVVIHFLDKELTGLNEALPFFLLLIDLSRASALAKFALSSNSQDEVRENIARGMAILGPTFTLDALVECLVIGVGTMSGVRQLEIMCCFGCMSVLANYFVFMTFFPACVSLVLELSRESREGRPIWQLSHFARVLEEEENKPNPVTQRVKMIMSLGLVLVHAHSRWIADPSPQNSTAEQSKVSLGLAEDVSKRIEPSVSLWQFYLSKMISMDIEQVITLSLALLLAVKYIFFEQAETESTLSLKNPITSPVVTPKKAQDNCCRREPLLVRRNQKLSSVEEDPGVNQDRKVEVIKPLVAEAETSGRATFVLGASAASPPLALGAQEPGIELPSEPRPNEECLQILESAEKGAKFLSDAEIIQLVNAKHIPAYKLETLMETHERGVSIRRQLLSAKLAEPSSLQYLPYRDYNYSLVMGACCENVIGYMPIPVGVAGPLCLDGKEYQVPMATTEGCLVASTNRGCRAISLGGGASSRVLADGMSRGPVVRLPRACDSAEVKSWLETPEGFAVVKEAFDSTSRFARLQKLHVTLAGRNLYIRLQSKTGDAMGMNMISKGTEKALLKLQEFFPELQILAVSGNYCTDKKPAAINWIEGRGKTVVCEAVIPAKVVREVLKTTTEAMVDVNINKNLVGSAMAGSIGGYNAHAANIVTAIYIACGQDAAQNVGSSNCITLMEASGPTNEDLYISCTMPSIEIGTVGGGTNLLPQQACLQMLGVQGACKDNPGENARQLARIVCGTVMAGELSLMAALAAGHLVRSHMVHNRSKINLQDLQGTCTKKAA
In words: Cholesterol Synthesis in Freshly Isolated Rat Hepatocytes (14C-acetate incorporation into cholesterol). The assay is classed as cell-based. As to conditions: inhibition of 14C-acetate incorporation into cholesterol; 2.0 hours at 37° C; read-out: Hepatocytes 150. As for the experimental part:
2) Cholesterol Synthesis in Freshly Isolated Rat Hepatocytes […]
a. Isolation of Rat Hepatocytes
Sprague Dawley rats (180-220 grams) are anesthetized with Nembutol (50 mg/kg). The abdomen is opened and the first branch of the portal vein is tied closed. Heparin (100-200 units) is injected directly into the abdominal vena cava. A single closing suture is placed on the distal section of the portal vein, and the portal vein is canulated between the suture and the first branching vein. The liver is perfused at a rate of 20 ml/minute with prewarmed (37° C), oxygenated buffer A (HBSS without calcium or magnesium containing 0.5 mM EDTA) after severing the vena cava to allow drainage of the effluent. The liver is additionally perfused with 200 ml of prewarmed buffer B (HBSS containing 0.05% bacterial collagenase). […] Pelleted hepatocytes are washed once in Waymouth's medium, counted and assayed for viability by trypan blue exclusion. […]
Lipids are extracted essentially as described by Bligh, E. G. and W. J. Dyer, Can. […] Plates are scanned and counted using a BioScan automated scanning system. Radiolabel in the cholesterol peak (RF 0.28) is determined and expressed at total counts per peak and as a percent of the label in the total lipid extract. […]
Drug effects (% inhibition of cholesterol synthesis) are determined by comparing % of label in cholesterol for control and drug treated cultures. […]

Take “(S)-4-[[[4-(4-Fluorophenyl)-1,2-bis(1-methylethyl)-5-phenyl-1H-pyrrol-3-yl]-ethynyl]hydroxyphosphinyl]-3-hydroxybutanoic acid, dilithium salt [SQ 34,346]”: the IC50 is 78 nM.
